# Where “and” joins values, the source holds several entries; their conditions need not be identical. Equal values may be shown once.
# What was measured:
# Test in all cases: TAL and PAL enzyme kinetics
# Format in all cases: biochemical
# [1] = tested on: Joinvillea ascendens JaPAL (SEQ ID NO: 28) variant JaPAL^F140H_MUT16 (F140H plus PTAL-type residues at 70, 102, 110, 112, 121, 129, 135, 138, 267, 271, 279 …); conditions: PAL assay (L-Phe), pH 8.5, 30° C.
# Protocol: (§1) To investigate the potential role of these residues in TAL activity, we generated two JaPAL mutant enzymes, one with PTAL-type substitutions in the 8 circle residues and the other with PTAL-type substitutions in both the circle and triangle residues (Table 4) in addition to the F140H mutation (JaPAL^F140H_MUT8 and JaPAL^F140H_MUT16, respectively).
# (§2) A mixture containing 100 mM Tris-HCl (pH 8.5), 1% glycerol, and purified enzyme in a total volume of 50 μl was preincubated for 3 min at 30° C. […] The reactions were terminated by addition of 6N acetic acid (10 μl).
# (§3) The kinetic parameters of the recombinant enzymes were determined using HPLC. Reaction mixtures containing 100 mM Tris-HCl (pH 8.5), 1% glycerol, and purified enzyme (0.15 μg for PAL assay and 1 μg for TAL assay) in a 50 μl total volume were preincubated for 3 min at 30° C. […] After 10 min and 20 min incubations for PAL and TAL assay, respectively, at 30° C., the reaction was terminated by addition of 6N acetic acid (10 μl). […] The products were quantified using calibration curves generated using authentic standards. Non-linear hyperbolic regression analyses were conducted using the Excel Solver tool to calculate Km and Vmax values.
# [2] = tested on: Joinvillea ascendens JaPAL (SEQ ID NO: 28) variant JaPAL^F140H_MUT8 (F140H plus PTAL-type residues at 102, 112, 121, 138, 267, 444, 448, 500)
# Protocol: as §1, §2, §3
# [3] = tested on: Ecdeiocolea monostachya EmoPTAL, wild type; conditions: PAL assay (L-Phe), pH 8.5, 30° C.
# Protocol: as §2, §3
# [4] = tested on: Joinvillea ascendens JaPAL variant F140H (JaPAL^F140H), SEQ ID NO: 259; conditions: PAL assay (L-Phe), pH 8.5, 30° C.
# Protocol: as §2, §3
# [5] = tested on: Streptochaeta angustifolia SaPTAL-a, wild type; conditions: PAL assay (L-Phe), pH 8.5, 30° C.
# Protocol: as §2, §3
# [6] = tested on: Joinvillea ascendens JaPTAL (SEQ ID NO: 27) variant H125F/I97S (JaPTAL^H125F_I97S); conditions: PAL assay (L-Phe), pH 8.5, 30° C.
# Protocol: as §2, §3
# [7] = tested on: Streptochaeta angustifolia SaPTAL-a variant H118F (SaPTAL-a^H118F); conditions: PAL assay (L-Phe), pH 8.5, 30° C.
# Protocol: as §2, §3
# [8] = tested on: Joinvillea ascendens JaPTAL, wild type, SEQ ID NO: 27; conditions: PAL assay (L-Phe), pH 8.5, 30° C.
# Protocol: as §2, §3
# [9] = tested on: Joinvillea ascendens JaPAL, wild type, SEQ ID NO: 28; conditions: PAL assay (L-Phe), pH 8.5, 30° C.
# Protocol: as §2, §3
# [10] = tested on: Sorghum bicolor SbPAL, wild type; conditions: PAL assay (L-Phe), pH 8.5, 30° C.
# Protocol: as §2, §3
# [11] = tested on: Joinvillea ascendens JaPTAL (SEQ ID NO: 27) variant H125F (JaPTAL^H125F); conditions: PAL assay (L-Phe), pH 8.5, 30° C.
# Protocol: as §2, §3
# [12] = tested on: Ecdeiocolea monostachya EmoPTAL variant H127F (EmoPTAL^H127F); conditions: PAL assay (L-Phe), pH 8.5, 30° C.
# Protocol: as §2, §3
# [13] = tested on: Streptochaeta angustifolia SaPTAL-b variant H126F (SaPTAL-b^H126F); conditions: PAL assay (L-Phe), pH 8.5, 30° C.
# Protocol: as §2, §3
# [14] = tested on: Streptochaeta angustifolia SaPTAL-b, wild type; conditions: PAL assay (L-Phe), pH 8.5, 30° C.
# Protocol: as §2, §3
# [15] = tested on: Sorghum bicolor SbPAL variant F135H (SbPAL^F135H); conditions: PAL assay (L-Phe), pH 8.5, 30° C.
# Protocol: as §2, §3
# [16] = tested on: Ecdeiocolea monostachya EmoPAL variant F134H (EmoPAL^F134H); conditions: PAL assay (L-Phe), pH 8.5, 30° C.
# Protocol: as §2, §3
# [17] = tested on: Ecdeiocolea monostachya EmoPAL, wild type; conditions: PAL assay (L-Phe), pH 8.5, 30° C.
# Protocol: as §2, §3
# [18] = PAL assay (L-Phe), pH 8.5, 30° C.
structure (smiles),measurement,setting,value
"N[C@@H](Cc1ccccc1)C(=O)O [L-Phe, phenylalanine]",Km,[1],455 ± 4.6 µM
same,kcat,[1],0.46 ± 0.01 s⁻¹
same,kcat/Km,[1],1010 ± 0 M⁻¹ s⁻¹
same,Km for Phe relative to wild-type JaPTAL,"[2]; PAL activity, higher than JaPTAL",2 fold
same,Km,[2]; [18],141 ± 6.3 µM
same,kcat,[2]; [18],0.60 ± 0.01 s⁻¹
same,kcat/Km,[2]; [18],4250 ± 220 M⁻¹ s⁻¹
same,Km,[3],64.1 ± 3.1 µM
same,kcat,[3],0.48 ± 0.00 s⁻¹
same,kcat/Km,[3],7540 ± 390 M⁻¹ s⁻¹
same,Km,[4],697 ± 169 µM
same,kcat,[4],0.60 ± 0.04 s⁻¹
same,kcat/Km,[4],890 ± 180 M⁻¹ s⁻¹
same,Km,[5],154 ± 3.7 µM
same,kcat,[5],0.39 ± 0.01 s⁻¹
same,kcat/Km,[5],2510 ± 30 M⁻¹ s⁻¹
same,Km,[6],9.42 ± 0.8 µM
same,kcat,[6],0.02 ± 0.00 s⁻¹
same,kcat/Km,[6],1660 ± 120 M⁻¹ s⁻¹
same,Km,[7],6 ± 0.8 µM
same,kcat,[7],0.20 ± 0.00 s⁻¹
same,kcat/Km,[7],33600 ± 5100 M⁻¹ s⁻¹
same,Km,[8],66 µM and 65.6 µM
same,kcat,[8],0.5 s⁻¹ and 0.45 ± 0.02 s⁻¹
same,kcat/Km,[8],6800 ± 180 M⁻¹ s⁻¹
same,Km,[9],24 µM and 24.4 µM
same,kcat,[9],1.9 s⁻¹ and 1.92 ± 0.01 s⁻¹
same,kcat/Km,[9],78600 ± 0 M⁻¹ s⁻¹
same,Km,[10],43.9 ± 2.7 µM
same,kcat,[10],0.97 ± 0.02 s⁻¹
same,kcat/Km,[10],22050 ± 1080 M⁻¹ s⁻¹
same,Km,[11],6.8 ± 0.7 µM
same,kcat,[11],0.08 ± 0.00 s⁻¹
same,kcat/Km,[11],12280 ± 710 M⁻¹ s⁻¹
same,Km,[12],3.6 ± 0.5 µM
same,kcat,[12],0.12 ± 0.00 s⁻¹
same,kcat/Km,[12],32620 ± 2120 M⁻¹ s⁻¹
same,Km,[13],6.3 ± 0.5 µM
same,kcat/Km,[13],37050 ± 2120 M⁻¹ s⁻¹
same,Km,[14],227.4 ± 1.5 µM
same,kcat,[14],0.56 ± 0.02 s⁻¹
same,kcat/Km,[14],2460 ± 100 M⁻¹ s⁻¹
same,Km,[15],1050 ± 58.5 µM
same,kcat,[15],0.88 ± 0.05 s⁻¹
same,kcat/Km,[15],840 ± 20 M⁻¹ s⁻¹
same,Km,[16],1310 ± 25.6 µM
same,kcat,[16],0.42 ± 0.01 s⁻¹
same,kcat/Km,[16],320 ± 10 M⁻¹ s⁻¹
same,Km,[17],27.7 ± 1.9 µM
same,kcat,[17],1.23 ± 0.02 s⁻¹
same,kcat/Km,[17],44700 ± 2390 M⁻¹ s⁻¹

# — patent US20240318160A1 (Wisconsin Alumni Research Foundation, priority 2023, published 2024)
